From patent US12233161B1, “Lipids and lipid nanoparticle formulations” (LONGUIDE BIOPHARMA CORPORATION, priority 2024, dated 2025)
One block for each compound: values may come before it.

How the values were obtained:
[1] = Particle size and PDI of nucleic acid lipid nanoparticle preparations by dynamic light scattering; format: physicochemical
Outline: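 Size read by DLS after diluting the LNP preparation (approx. 0.04 mg/mL mRNA) in ultrapure water with gentle pipette mixing. The same sample, recovered and diluted further with water, was then used for zeta potential measurement.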

[2] = Potential characterization of nucleic acid lipid nanoparticle preparations; format: physicochemical; settings: mRNA LNP
Outline: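 Nanoparticles (about 0.04 mg/mL mRNA) were diluted in ultrapure water for Malvern ZEN3700 measurement: 20 μL into 780 μL for potential alone, or 27.5 μL into 200 μL for DLS particle size followed by addition of 600 μL water for potential.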

mice [3] = test: In vivo delivery of FLuc-mRNA lipid nanoparticles in mice, in vivo imaging (IVIS)
Outline: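 Mice (n=3) received about 75 μL FLuc-mRNA LNP per mouse intramuscularly (rectus femoris), intravenously (tail vein), intraperitoneally or subcutaneously (back). After injection, D-luciferin (200 μL, 15 mg/mL) was given i.p. 10-15 min before IVIS imaging.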

mice [4] = test: In vivo delivery of FLuc-circ-RNA lipid nanoparticles in mice; settings: Fluc-circ-RNA LNP, organ not given
Procedure: Lipid nanoparticles loaded with nucleic acid drugs were prepared according to step 2, replacing FLuc-mRNA with FLuc-circ-RNA (Hongene Biotech Corporation, Shanghai). After formulation, the nanoparticles were administered via intramuscular injection (into the quadriceps femoris muscle of mice), intravenous injection (into the tail vein of mice), intraperitoneal injection, or subcutaneous injection (subcutaneously on the back). Approximately 75 μL was injected per mouse, with a total of 3 mice per group. In vivo imaging (PerkinElmer, IVIS Lumina III) was performed after a certain period of time. Ten to fifteen minutes before imaging, 200 μL of a 15 mg/mL D-Luciferin working solution was injected intraperitoneally, followed by imaging analysis using the in vivo imaging system.

[5] = mRNA LNP, 1.00:4.00:30.00:65.00, N/P 30
[6] = mRNA LNP, 1.40:11.15:38.95:48.50, N/P 30
[7] = mRNA LNP, 1.00:4.00:30.00:65.00, N/P 30, IV, liver
[8] = mRNA LNP, 1.00:4.00:30.00:65.00, N/P 30, IV, lung
[9] = mRNA LNP, 1.00:4.00:30.00:65.00, N/P 30, IV, spleen
[10] = mRNA LNP, 1.40:11.15:38.95:48.50, N/P 30, IV, liver
[11] = mRNA LNP, 1.40:11.15:38.95:48.50, N/P 30, IV, lung
[12] = mRNA LNP, 1.40:11.15:38.95:48.50, N/P 30, IV, spleen
[13] = DMG-PEG2000:DSPC:Chol:Lipid 1.40:11.15:38.95:48.50, N/P 10, mRNA LNP, preparation given IH
[14] = DMG-PEG2000:DSPC:Chol:Lipid 1.40:11.15:38.95:48.50, N/P 10, mRNA LNP, preparation given IV
[15] = Fluc-circ-RNA LNP, preparation given IM
[16] = Fluc-circ-RNA LNP, preparation given IV
[17] = DMG-PEG2000:DSPC:Chol:Lipid 1.40:11.15:38.95:48.50, N/P 10, IV, liver
[18] = DMG-PEG2000:DSPC:Chol:Lipid 1.40:11.15:38.95:48.50, N/P 10, IV, lung
[19] = DMG-PEG2000:DSPC:Chol:Lipid 1.40:11.15:38.95:48.50, N/P 10, IV, spleen

PDI [1, 5]: 0.17
Particle size (nm) [1, 5]: 97.75 nm
PDI [1, 6]: 0.18
Particle size (nm) [1, 6]: 91.53 nm
Zeta potential (mV) ([2]; 1.00:4.00:30.00:65.00, N/P 30): 13.40 mV
Zeta potential (mV) ([2]; 1.40:11.15:38.95:48.50, N/P 30): 16.43 mV
SMILES: CCCCCCCCCCCCNC(=O)CCN(CCC(=O)NCCCCCCCCCCCC)CCN(C)CCN(CCC(=O)NCCCCCCCCCCCC)CCC(=O)NCCCCCCCCCCCC [L0264-Control, reference compound]
% of organ targeting (mice [3]; [7]): 0.58%
IVIS (mice [3]; [7]): 1.67E+06
% of organ targeting (mice [3]; [8]): 86.18%
IVIS (mice [3]; [8]): 2.49E+08
% of organ targeting (mice [3]; [9]): 13.25%
IVIS (mice [3]; [9]): 3.82E+07
IVIS (mice [3]; mRNA LNP, 1.40:11.15:38.95:48.50, N/P 30, IM, organ not given): 1.37E+05
% of organ targeting (mice [3]; [10]): 1.25%
IVIS (mice [3]; [10]): 8.01E+05
% of organ targeting (mice [3]; [11]): 74.91%
IVIS (mice [3]; [11]): 4.81E+07
% of organ targeting (mice [3]; [12]): 23.85%
IVIS (mice [3]; [12]): 1.53E+07
IVIS (mice [3]; mRNA LNP, DMG-PEG2000:DSPC:Chol:lipid 1.00:4.00:30.00:65.00, N/P 30, IV, body): 1.10E+08
IVIS (mice [3]; mRNA LNP, DMG-PEG2000:DSPC:Chol:lipid 1.40:11.15:38.95:48.50, N/P 30, IV, body): 2.50E+07

PDI [1, 13]: 0.16 ± 0.01
Particle size [1, 13]: 127.47 ± 2.05 nm
Particle size ([1]; DMG-PEG2000:DSPC:Chol:Lipid 1.40:11.15:38.95:48.50, N/P 10, mRNA LNP, preparation given IM): 111.27 ± 0.84 nm
PDI [1, 14]: 0.06 ± 0.02
Particle size [1, 14]: 131.20 ± 1.25 nm
PDI [1, 15]: 0.09
Particle size (nm) [1, 15]: 90.08 nm
PDI [1, 16]: 0.19
Particle size (nm) [1, 16]: 65.67 nm
SMILES: CCCCCCCCCCCOC(=O)CCCCCN(CCO)CCCCCCCC(=O)OC(CCCCCCCC)CCCCCCCC [SM-102, reference compound]
IVIS (mice [4]; IM): 2.06E+09
IVIS (mice [4]; IV): 1.06E+09
IVIS (mice [3]; DMG-PEG2000:DSPC:Chol:Lipid 1.40:11.15:38.95:48.50, N/P 10, IH, whole body scan): 1.62 × 10^7
IVIS (mice [3]; DMG-PEG2000:DSPC:Chol:Lipid 1.40:11.15:38.95:48.50, N/P 10, IM, whole body scan): 6.67 × 10^7
IVIS (mice [3]; DMG-PEG2000:DSPC:Chol:Lipid 1.40:11.15:38.95:48.50, N/P 10, IV, body): 1.02 × 10^8
% of organ targeting (mice [3]; [17]): 61.21%
IVIS (mice [3]; [17]): 1.99 × 10^7
% of organ targeting (mice [3]; [18]): 0.96%
IVIS (mice [3]; [18]): 3.11 × 10^5
% of organ targeting (mice [3]; [19]): 37.83%
IVIS (mice [3]; [19]): 1.23 × 10^7
tissue-targeting specificity (lung vs spleen depending on molar percentage of compound) (mice [3]; certain formulations, Table 2): not observed
